The CheMixHub viscosity set
± gives the uncertainty stated by the source.

Assay: xn = mol fraction of the nth substance listed

CCCCCC + CCCCO
viscosity [mPa·s]
Settings | 298.15 K | 313.15 K | 318.15 K
101 kPa, x2 = 0.08 | 0.33 ± 0.009 | – | 0.266 ± 0.007
101 kPa, x2 = 0.1284 | 0.345 ± 0.009 | – | 0.284 ± 0.008
101 kPa, x2 = 0.1441 | 0.35 ± 0.009 | – | 0.29 ± 0.008
101 kPa, x2 = 0.2 | 0.385 ± 0.01 | – | 0.311 ± 0.008
101 kPa, x2 = 0.28 | 0.415 ± 0.011 | – | 0.33 ± 0.009
101.3 kPa, x2 = 0.0999 | 0.3222 ± 0.0036 | 0.2741 ± 0.0032 | –
101.3 kPa, x2 = 0.1997 | 0.3628 ± 0.0039 | 0.306 ± 0.0035 | –
101.3 kPa, x2 = 0.299 | 0.4227 ± 0.0044 | 0.3503 ± 0.0038 | –
101.3 kPa, x2 = 0.4007 | 0.5201 ± 0.0052 | 0.4169 ± 0.0043 | –
101.3 kPa, x2 = 0.499 | 0.642 ± 0.0062 | 0.5063 ± 0.0051 | –
101.3 kPa, x2 = 0.5988 | 0.8264 ± 0.0077 | 0.6311 ± 0.0061 | –
101.3 kPa, x2 = 0.6996 | 1.082 ± 0.0097 | 0.8166 ± 0.0077 | –
101.3 kPa, x2 = 0.8 | 1.421 ± 0.013 | 1.041 ± 0.0097 | –
101.3 kPa, x2 = 0.8994 | 1.888 ± 0.016 | 1.33 ± 0.013 | –
101.33 kPa, x1 = 0.0971 | 1.848 ± 0.015 | – | –
101.33 kPa, x1 = 0.1707 | 1.496 ± 0.012 | – | –
101.33 kPa, x1 = 0.2625 | 1.169 ± 0.01 | – | –
101.33 kPa, x1 = 0.3521 | 0.909 ± 0.008 | – | –
101.33 kPa, x1 = 0.4142 | 0.778 ± 0.007 | – | –
101.33 kPa, x1 = 0.562 | 0.539 ± 0.005 | – | –
101.33 kPa, x1 = 0.6624 | 0.44 ± 0.004 | – | –
101.33 kPa, x1 = 0.8147 | 0.348 ± 0.004 | – | –
101.33 kPa, x1 = 0.9267 | 0.306 ± 0.003 | – | –

CCCCCOC(C)=O + CCCCO
viscosity [mPa·s], 101.33 kPa
Settings | x1 = 0.1138 | x1 = 0.2047 | x1 = 0.3089 | x1 = 0.4008 | x1 = 0.5 | x1 = 0.6103 | x1 = 0.7064 | x1 = 0.8088 | x1 = 0.9025
293.15 K | 2.52 ± 0.28 | 2.275 ± 0.26 | 2.024 ± 0.24 | 1.825 ± 0.23 | 1.633 ± 0.21 | 1.443 ± 0.2 | 1.295 ± 0.18 | 1.154 ± 0.17 | 1.039 ± 0.16
303.15 K | 2.02 ± 0.24 | 1.838 ± 0.23 | 1.649 ± 0.21 | 1.499 ± 0.2 | 1.353 ± 0.19 | 1.206 ± 0.18 | 1.092 ± 0.17 | 0.982 ± 0.16 | 0.891 ± 0.15
313.15 K | 1.515 ± 0.2 | 1.395 ± 0.19 | 1.269 ± 0.18 | 1.167 ± 0.17 | 1.066 ± 0.17 | 0.964 ± 0.16 | 0.883 ± 0.15 | 0.805 ± 0.14 | 0.739 ± 0.14
323.15 K | 1.009 ± 0.16 | 0.948 ± 0.16 | 0.883 ± 0.15 | 0.83 ± 0.15 | 0.776 ± 0.14 | 0.72 ± 0.14 | 0.674 ± 0.13 | 0.629 ± 0.13 | 0.59 ± 0.13
